Legend:
[1] = tested on: thromboxane synthetase; settings: cited from earlier work
[2] = biological target: T1, Thromboxane synthetase (Homo sapiens, UniProt P24557); experiment: Inhibition of thromboxane synthetase (platelet membrane preparation, 14C-arachidonic acid to thromboxane-B2); type: biochemical
T1 construct: from tissue; host or cells: blood platelets from fresh platelet-rich plasma (PRP), lysed membrane suspension
T1 sequence (P24557 1-533): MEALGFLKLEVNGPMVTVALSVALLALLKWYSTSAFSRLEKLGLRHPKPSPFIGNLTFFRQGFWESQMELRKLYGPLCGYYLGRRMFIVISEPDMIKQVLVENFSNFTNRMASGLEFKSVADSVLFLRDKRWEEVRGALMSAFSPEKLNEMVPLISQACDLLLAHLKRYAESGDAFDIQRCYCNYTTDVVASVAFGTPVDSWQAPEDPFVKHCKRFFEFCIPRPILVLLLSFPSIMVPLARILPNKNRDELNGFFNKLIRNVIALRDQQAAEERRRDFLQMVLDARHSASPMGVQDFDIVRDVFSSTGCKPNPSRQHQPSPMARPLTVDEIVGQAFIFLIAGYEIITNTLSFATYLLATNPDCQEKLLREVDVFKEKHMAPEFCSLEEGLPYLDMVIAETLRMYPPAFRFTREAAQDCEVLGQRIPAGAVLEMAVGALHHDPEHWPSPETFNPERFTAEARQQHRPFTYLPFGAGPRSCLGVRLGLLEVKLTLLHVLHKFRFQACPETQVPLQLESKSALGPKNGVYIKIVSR
Procedure: Thromboxane synthetase is prepared from fresh PRP according to the procedure of Nijkamp et al, supra. Briefly, a platelet pellet is washed in physiological saline, and the platelets lysed by a combination of freeze-thaw cycles and homogenizations. This platelet membrane suspension is divided into small aliquots and stored at -70° C. until used. Thromboxane synthetase activity is determined by incubating the platelet preparation with ^14 C-arachidonic acid in a reaction mixture containing epinephrine, reduced glutathione, and Tris-HCl buffer, pH 7.5. Thromboxane synthetase activity is determined in the presence of the test compound dissolved in methanol, or of the methanol control. The reaction is carried out for 3-5 minutes at 37° C. and stopped by the addition of 2N HCl. In some instances, aliquots of the reaction mixtures are spotted directly on Quantum thin layer plates for thin layer chromatography of reaction mixture components. In other experiments, the lipids in the reaction mixture are extracted into ethyl acetate. After the ethyl acetate is taken to dryness, the lipid residue is dissolved in ethanol and aliquots spotted on the thin layer plates. In either instance, the plates are developed using chloroform:methanol:acetic acid (90:5:5) as solvent system. […] The radioactivity that migrates in the area of thromboxane-B2 is then determined by liquid scintillation spectrometry.

[3] = tested on: arachidonic acid induced platelet aggregation; experiment: Inhibition of arachidonic acid induced platelet aggregation in platelet-rich plasma; type: cell-based; settings: arachidonic acid 800 μM, human PRP
Procedure: Venous blood is collected from the antecubital vein of human volunteers who are drug free for at least one week. The blood is collected by gravity into plastic transfer bags containing 0.38% sodium citrate as the anticoagulant. Platelet-rich plasma (PRP) is prepared by centrifuging the citrated blood at 200×g for 10 min at 25° C. Platelet-poor plasma (PPP) is obtained by centrifuging the PRP at 2500×g for 30 min at 25° C. Platelet aggregation is studied photometrically (Boron, Nature 194:927-929,1962) using a Chronolog aggregometer connected to a linear recorder. The test compound is dissolved in methanol and preincubated with PRP for 2.5 minutes at 37° C. Arachidonic acid (800 μM) dissolved in 0.1 M Tris-HCl buffer, pH 8.5, is then added and the optical transmission recorded for at least 3 minutes. The rate of increase in optical transmission, which is a measure of the initial velocity of aggregation, is measured by determining the slope of the steepest part of the curve.

[4] = tested on: histamine-induced bronchoconstriction; experiment: Specificity test: histamine-induced bronchoconstriction in the anesthetized guinea pig; type: in vivo; settings: 1.0 mg/kg i.v.; histamine 5.0 μg/kg i.v.
Procedure: (§1) Male guinea pigs weighing 480-520 g are anesthetized with urethane (1.5 g/kg, i.p.). Spontaneous respiration is arrested with succinylchloline chloride (1.5 mg/kg, i.p.). The guinea pigs are artificially ventilated with a Palmer respiration pump through a tracheal cannula at a rate of 72 strokes/min and a stroke volume of 3 ml.
Pulmonary resistance and dynamic compliance are determined by the method described by Amdur and Mead, "Mechanics of Respiration in Unanesthetized Guinea Pigs", Amer. J. Physiol. 192, 364-368, as modified by Giles et al. (1973), "The Bronchodilator and Cardiac Stimulant Effects of Th 1165A, Salbutamol, and Isoproterenol", J. Pharmacol. Exp. Ther. 186, 472-481. Respiratory flow is measured with a Fleisch pneumotachograph (No. 000) and a Validyne (MP 45) differential pressure transducer. Transpulmonary pressure is determined by monitoring the difference between pressure in the external end of a tracheal cannula and the pressure in the pleural cavity by means of a Validyne MP 45 differential pressure transducer. […] The computer output of flow, pressure, volume, resistance and dynamic compliance are recorded on a Brush 260 recorder. Blood pressure is measured from a carotid artery with a Statham P23Db transducer and heart rate is derived from the pulse pressure. Both blood pressure and heart rate are recorded with the Buxco pulmonary mechanics computer. […]

[5] = tested on: arachidonic acid-induced bronchoconstriction; experiment: Inhibition of arachidonic acid-induced bronchoconstriction in the anesthetized guinea pig; type: in vivo
Procedure: as §1
Pulmonary resistance and dynamic compliance are determined by the method described by Amdur and Mead, "Mechanics of Respiration in Unanesthetized Guinea Pigs", Amer. J. Physiol. 192, 364-368, as modified by Giles et al. (1973), "The Bronchodilator and Cardiac Stimulant Effects of Th 1165A, Salbutamol, and Isoproterenol", J. Pharmacol. Exp. Ther. 186, 472-481. Respiratory flow is measured with a Fleisch pneumotachograph (No. 000) and a Validyne (MP 45) differential pressure transducer. Transpulmonary pressure is determined by monitoring the difference between pressure in the external end of a tracheal cannula and the pressure in the pleural cavity by means of a Validyne MP 45 differential pressure transducer. The flow and pressure signals are fed into an on-line analog Pulmonary Mechanics Computer (Buxco Electronics, Inc.) which provides calculation of pulmonary resistance and dynamic compliance. The computer output of flow, pressure, volume, resistance and dynamic compliance are recorded on a Brush 260 recorder. Blood pressure is measured from a carotid artery with a Statham P23Db transducer and heart rate is derived from the pulse pressure. Both blood pressure and heart rate are recorded with the Buxco pulmonary mechanics computer. All parameters are digitalized by a Data Logger, Model DL-12 Buxco electronics and recorded on a Texas Instrument silent 700 ASR printer.
Arachidonic acid (AA) (0.25 mg/kg i.v.) is administered to groups of 4-5 guinea pigs 15 minutes before and 3 and 10 minutes after the administration of the test compound (0.1, 0.3 and 1.0 mg/kg i.v.). The administration of AA causes substantial increases in pulmonary resistance (R) and decrease in dynamic compliance (C) of 70% and 50% respectively. […] The inhibitory effect of the test compound lasts for less than 10 minutes.

For `c1c[nH]cn1` [imidazole], the “inhibition of thromboxane synthetase (literature)” value [1] is listed as “specific inhibitor”.
For `C(=Cc1ccccc1)Cn1ccnc1.Cl` [test compound, 1-(3-phenyl-2-propenyl)-1H-imidazole, hydrochloride (1:1)], the inhibition at 1000 µM ([2]; at 1000 μM) was 83%, the IC50 ([2]; read-out: I50 thromboxane synthetase) was 30 µM and the IC50 ([3]; read-out: I50 (concentration to achieve 50% inhibition) of platelet aggregation) was 30 µM. For the same molecule, the inhibition at 1000 µM ([3]; screening concentration 1 mM, read-out: effectiveness in inhibiting platelet aggregation) was 100%, the “effect on histamine-induced increases in R and decreases in C” value [4] was “not altered” and the duration of hypertension ([5]; 0.1, 0.3 and 1.0 mg/kg i.v.) was “up to 30 minutes”. The “effect of compound alone on R, C or heart rate” value ([5]; 0.1, 0.3 and 1.0 mg/kg i.v.) was “does not significantly alter”, the “effect on blood pressure” value ([5]; 0.1, 0.3 and 1.0 mg/kg i.v.) was “profound hypertension of long duration” and the “duration of inhibitory effect on AA-induced changes” value ([5]; 0.1-1.0 mg/kg i.v.) was “less than 10 minutes”. The “effect on AA-induced changes in pulmonary resistance (R) and dynamic compliance (C)” value ([5]; 0.1-1.0 mg/kg i.v. given before AA 0.25 mg/kg i.v.) was “significant dose dependent decrease”.

— patent publication US4243671A, “Inhibition of thromboxane synthetase formation and arachidonic acid-induced platelet aggregation and bronchoconstriction” (E. R. Squibb & Sons, Inc., priority 1979, dated 1981)
